In patent EP4745138A1, “THIO-GLUTARIMIDO ISOINDOLINONE DERIVATIVE, BIFUNCTIONAL PROTEIN DEGRADER CONTAINING SAME, AND USES THEREOF” (Gluetacs Therapeutics (Shanghai) Co., Ltd., priority 2023, dated 2025):
Read-outs that look alike come from different tables or passages of the source.

Tests used:
SR = test: Tumor cell proliferation inhibition (CellTiter-Meiluncell Luminescent Cell Viability Assay); conditions: Homo sapiens, 96 hours, Table I-1, designed based on the ALK inhibitors, read-out: Inhibitory activity (IC50, nM) SR
Protocol: The tumor cells used herein were cultured in a cell culture medium listed in table 3 at 37°C in an incubator with 5% CO2. Prior to experimentation, all cell lines used were correctly identified by STR profiling, and tested negative for mycoplasma contamination using a mycoplasma detection kit through routine screenings. Table 3. Tumor cells and cell culture medium used in the present disclosure
The IC50 values of the compounds of the present disclosure (including the compounds in Table 1, Table 2, and Examples) were determined using the CellTiter-Meiluncell Luminescent Cell Viability Assay Kit from Dalian Meilun Biotech Co., Ltd. The detailed procedure is as follows: Tumor cells were seeded in 96-well cell culture plates at the densities specified in Table 4. On the following day, the test compounds of the present disclosure were subjected to serial dilution. […] Subsequently, 0.5 µL of the test compound dilution was transferred into the 96-well plate containing the cells, with each well containing 100 µL of cell culture medium. […] Into the 96-well plate, the diluted test compounds and corresponding detection reagents were added, resulting in final test compound concentrations of 500 nM and 10 nM, respectively. The experimental procedure is described below using the diluted 2 µM test compound as an example.
0.5 µL of the aforementioned diluted compound of the present disclosure (including the compounds in Table 1, Table 2, and Examples) was added to the seeded cells in 100 µL of medium, yielding a final test compound concentration of 10 nM. After the cells were treated with the compounds of the present disclosure for a specified period, the cell viability assay reagent was added to the culture medium according to the kit's instructions to determine cell viability. […] All controls were treated using the same procedure as the compounds of the present disclosure. […] Seeding protocol and treatment time for tumor cells

ALK = biological target: T1, ALK (Homo sapiens, UniProt Q96SW2+Q9HC35+Q9UM73); test: Western blot, target protein degradation in H2228 Cell; format: cell-based; conditions: substrate protein remaining %, treated at 500 nM and 50 nM, 24 hours
T1 construct: endogenous in cells; host or cells: H2228
Protocol: (§1) Conventional Western blot assay was performed to evaluate the effects of the compounds of the present disclosure on the expression of target proteins in cells.
(§2) (1) Cell Seeding and Protein Harvesting: The selected cells were processed according to the cell seeding procedure and protein harvesting procedure in Table II-2. Table II-2 Cell Seeding and Protein Harvesting Procedures
(§3) (2) To the collected supernatant, 5X SDS sample loading buffer was added, followed by denaturation at 95°C for 5 minutes. The denatured samples were then separated by SDS-PAGE electrophoresis on a polyacrylamide gel. Proteins were transferred to a nitrocellulose membrane (0.45 µm NC membrane), blocked with blocking buffer at room temperature for 1 hour, and subjected to antibody incubation and development procedures according to the antibody manufacturer's instructions (Cell Signaling Technology).
(§4) Half-Maximal Degradation Concentration value (the drug concentration required for degrading proteins by 50%, abbreviated as DC50) reads method: comparing the grayscale values of Western blot bands from drug-treated samples with those from blank DMSO-treated controls, and identifying the drug concentration range at which the grayscale value is half that of the DMSO-treated control bands.
(§5) DC50 values can be calculated using ImageJ software to measure grayscale values of Western blot bands from drug-treated samples. The concentration-response curve is fitted to estimate the drug concentration corresponding to half the grayscale value.
(§6) Target protein remaining (%) refers to the percentage of target protein remaining in cells after treatment with protein degrader compounds.
(§7) Calculation method for target protein remaining (%): Use ImageJ software to measure grayscale values of Western blot bands from drug (protein degrader)-treated samples. The grayscale value of drug-treated bands is divided by that of internal control protein bands, and the resulting quotient is normalized to obtain the relative percentage of remaining target protein after protein degrader treatment. Target protein degradation rate(%) = 1−target protein remaining(%). [formula]

[1] = biological target: T2, human Cereblon WT GST-tagged protein (Homo sapiens, UniProt Q96SW2); test: CRBN-binding affinity, HTRF (CEREBLON BINDING kit); conditions: for inhibition at 0.5 µM: read-out: Inhibition Rate at 0.5 µM (%); for inhibition at 2 µM: read-out: Inhibition Rate at 2 µM (%); for IC50: CRBN binding, HTRF
T2 construct: purchased CISBIO 64BDCRBNPEH
T2 sequence (Q96SW2 whole entry): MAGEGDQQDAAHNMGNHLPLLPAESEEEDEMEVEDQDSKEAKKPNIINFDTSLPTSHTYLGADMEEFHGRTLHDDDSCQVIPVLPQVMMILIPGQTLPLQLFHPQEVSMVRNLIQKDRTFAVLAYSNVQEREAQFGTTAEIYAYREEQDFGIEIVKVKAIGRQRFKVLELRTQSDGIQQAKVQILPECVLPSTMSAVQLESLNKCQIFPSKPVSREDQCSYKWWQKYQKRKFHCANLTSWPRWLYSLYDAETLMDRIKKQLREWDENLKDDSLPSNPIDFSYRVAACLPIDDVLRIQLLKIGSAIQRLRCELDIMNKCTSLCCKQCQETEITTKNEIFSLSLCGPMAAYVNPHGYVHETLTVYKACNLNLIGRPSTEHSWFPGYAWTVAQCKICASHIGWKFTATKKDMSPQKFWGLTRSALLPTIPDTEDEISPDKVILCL
In short: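 HTRF competition against a thalidomide-red probe using GST-tagged Cereblon and Eu-labelled anti-GST antibody. Test concentrations (final): 2 µM and 0.5 µM in diluent #9 (1X); blank controls lack compound and protein, containing PROTAC binding buffer.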

WEE1 = test: Western blot, substrate protein degradation in hPBMC Cell; format: cell-based, Human; conditions: substrate protein remaining %, treated at 50 nM and 500 nM, 24 hours
Protocol: as §1, §2, §3, §4, §5, §6, §7

CK1α = biological target: T3, CK1α (Homo sapiens, UniProt P48729+Q96SW2); test: as above; format: cell-based; conditions: substrate protein remaining %, treated at 50 nM and 500 nM, 24 hours
T3 construct: endogenous in cells; host or cells: hPBMC
T3 sequence (P48729 whole entry): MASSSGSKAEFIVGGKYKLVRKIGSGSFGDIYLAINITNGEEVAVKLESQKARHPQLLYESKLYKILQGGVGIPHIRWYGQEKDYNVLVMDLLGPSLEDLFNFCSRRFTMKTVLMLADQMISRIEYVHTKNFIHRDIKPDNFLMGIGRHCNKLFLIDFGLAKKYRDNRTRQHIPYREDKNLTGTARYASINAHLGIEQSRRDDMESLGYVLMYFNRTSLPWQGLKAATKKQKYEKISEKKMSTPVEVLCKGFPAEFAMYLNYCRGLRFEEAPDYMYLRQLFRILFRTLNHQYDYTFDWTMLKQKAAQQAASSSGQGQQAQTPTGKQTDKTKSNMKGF
T3 sequence (Q96SW2 whole entry): as the sequence (Q96SW2 whole entry) above
T3 sequence (Q16531 whole entry partner): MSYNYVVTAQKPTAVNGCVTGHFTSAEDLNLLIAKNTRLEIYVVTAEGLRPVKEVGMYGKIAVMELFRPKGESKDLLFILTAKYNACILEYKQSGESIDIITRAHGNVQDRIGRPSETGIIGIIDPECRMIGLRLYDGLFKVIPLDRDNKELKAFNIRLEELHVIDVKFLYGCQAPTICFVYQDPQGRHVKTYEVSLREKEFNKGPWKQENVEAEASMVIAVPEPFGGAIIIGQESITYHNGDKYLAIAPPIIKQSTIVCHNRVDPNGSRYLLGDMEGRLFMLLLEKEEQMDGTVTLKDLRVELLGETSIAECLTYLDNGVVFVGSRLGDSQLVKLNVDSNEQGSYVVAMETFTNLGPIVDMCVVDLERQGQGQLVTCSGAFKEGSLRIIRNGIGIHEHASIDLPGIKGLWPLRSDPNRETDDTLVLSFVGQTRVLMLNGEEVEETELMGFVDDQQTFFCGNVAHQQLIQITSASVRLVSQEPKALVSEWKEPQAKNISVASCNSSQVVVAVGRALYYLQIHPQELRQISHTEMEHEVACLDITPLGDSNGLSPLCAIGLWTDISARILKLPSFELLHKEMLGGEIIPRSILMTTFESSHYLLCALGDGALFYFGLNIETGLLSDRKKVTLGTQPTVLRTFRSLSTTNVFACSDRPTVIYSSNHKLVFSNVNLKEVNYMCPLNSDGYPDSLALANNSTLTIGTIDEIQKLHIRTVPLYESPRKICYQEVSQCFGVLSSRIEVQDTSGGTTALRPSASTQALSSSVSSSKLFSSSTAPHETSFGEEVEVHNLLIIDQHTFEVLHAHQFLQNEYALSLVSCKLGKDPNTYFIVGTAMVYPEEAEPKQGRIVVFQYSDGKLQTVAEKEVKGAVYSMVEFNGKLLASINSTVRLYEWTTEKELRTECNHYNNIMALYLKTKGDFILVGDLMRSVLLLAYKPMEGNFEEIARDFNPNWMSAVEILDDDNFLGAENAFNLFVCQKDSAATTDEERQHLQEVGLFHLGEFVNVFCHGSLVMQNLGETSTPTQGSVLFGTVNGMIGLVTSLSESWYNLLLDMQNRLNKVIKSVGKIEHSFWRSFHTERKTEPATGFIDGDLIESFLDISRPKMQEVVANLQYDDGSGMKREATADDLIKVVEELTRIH
Protocol: as §1, §2, §3, §4, §5, §6, §7

GSPT1 = biological target: T4, GSPT1 (Homo sapiens, UniProt P15170+Q96SW2); test: as above; format: cell-based; conditions: substrate protein remaining %, treated at 50 nM and 500 nM, 24 hours
T4 construct: endogenous in cells; host or cells: hPBMC
T4 sequence (P15170 whole entry): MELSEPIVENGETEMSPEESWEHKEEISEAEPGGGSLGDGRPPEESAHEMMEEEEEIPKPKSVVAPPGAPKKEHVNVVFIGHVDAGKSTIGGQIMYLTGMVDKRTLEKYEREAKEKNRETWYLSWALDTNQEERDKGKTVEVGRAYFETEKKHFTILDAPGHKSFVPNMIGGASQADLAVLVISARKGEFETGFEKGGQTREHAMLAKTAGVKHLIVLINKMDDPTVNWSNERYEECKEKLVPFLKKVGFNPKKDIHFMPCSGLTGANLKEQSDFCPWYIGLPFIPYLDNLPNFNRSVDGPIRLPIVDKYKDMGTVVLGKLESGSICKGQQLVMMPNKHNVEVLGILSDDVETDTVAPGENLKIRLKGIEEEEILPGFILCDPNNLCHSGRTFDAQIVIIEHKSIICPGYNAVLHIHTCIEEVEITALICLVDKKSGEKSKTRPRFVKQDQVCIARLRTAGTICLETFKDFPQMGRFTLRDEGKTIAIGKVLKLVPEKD
T4 sequence (Q96SW2 whole entry): as the sequence (Q96SW2 whole entry) above
T4 sequence (Q16531 whole entry partner): as the sequence (Q16531 whole entry partner) above
Protocol: as §1, §2, §3, §4, §5, §6, §7

IKZF1 = biological target: T5, IKZF1 (Homo sapiens, UniProt Q13422+Q96SW2); test: as above; format: cell-based; conditions: substrate protein remaining %, treated at 50 nM and 500 nM, 24 hours
T5 construct: endogenous in cells; host or cells: hPBMC
T5 sequence (Q13422 whole entry): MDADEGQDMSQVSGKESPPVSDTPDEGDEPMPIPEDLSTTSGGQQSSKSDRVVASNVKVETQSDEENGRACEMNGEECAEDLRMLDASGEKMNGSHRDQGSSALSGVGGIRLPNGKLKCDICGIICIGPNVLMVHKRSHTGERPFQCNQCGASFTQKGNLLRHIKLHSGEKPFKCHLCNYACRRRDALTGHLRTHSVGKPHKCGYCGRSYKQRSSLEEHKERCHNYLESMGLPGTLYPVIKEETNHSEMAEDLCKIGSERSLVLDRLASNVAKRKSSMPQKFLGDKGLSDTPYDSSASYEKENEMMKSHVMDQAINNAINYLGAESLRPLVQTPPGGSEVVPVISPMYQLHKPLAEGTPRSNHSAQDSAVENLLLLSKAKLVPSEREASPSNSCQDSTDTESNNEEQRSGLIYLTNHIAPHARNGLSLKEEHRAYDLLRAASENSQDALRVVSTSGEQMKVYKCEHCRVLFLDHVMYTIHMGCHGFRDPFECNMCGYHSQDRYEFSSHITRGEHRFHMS
T5 sequence (Q96SW2 whole entry): as the sequence (Q96SW2 whole entry) above
T5 sequence (Q16531 whole entry partner): as the sequence (Q16531 whole entry partner) above
Protocol: as §1, §2, §3, §4, §5, §6, §7

IKZF2 = biological target: T6, IKZF2 (Homo sapiens, UniProt Q96SW2+Q9UKS7); test: as above; format: cell-based; conditions: substrate protein remaining %, treated at 50 nM and 500 nM, 24 hours
T6 construct: endogenous in cells; host or cells: hPBMC
T6 sequence (Q9UKS7 whole entry): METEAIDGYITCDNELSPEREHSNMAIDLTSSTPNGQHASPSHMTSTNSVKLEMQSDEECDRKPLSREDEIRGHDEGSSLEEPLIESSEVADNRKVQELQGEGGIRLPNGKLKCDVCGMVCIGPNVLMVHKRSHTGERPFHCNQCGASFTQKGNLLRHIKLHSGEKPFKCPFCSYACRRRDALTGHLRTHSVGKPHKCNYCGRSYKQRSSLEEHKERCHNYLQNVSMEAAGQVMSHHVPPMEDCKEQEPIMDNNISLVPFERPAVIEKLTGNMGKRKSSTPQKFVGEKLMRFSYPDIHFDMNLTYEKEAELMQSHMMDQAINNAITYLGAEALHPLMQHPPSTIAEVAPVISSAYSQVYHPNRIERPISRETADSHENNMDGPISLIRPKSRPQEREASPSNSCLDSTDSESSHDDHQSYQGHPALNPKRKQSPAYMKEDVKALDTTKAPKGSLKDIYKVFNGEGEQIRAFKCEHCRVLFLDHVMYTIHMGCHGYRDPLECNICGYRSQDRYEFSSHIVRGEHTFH
T6 sequence (Q96SW2 whole entry): as the sequence (Q96SW2 whole entry) above
T6 sequence (Q16531 whole entry partner): as the sequence (Q16531 whole entry partner) above
Protocol: as §1, §2, §3, §4, §5, §6, §7

IKZF3 = biological target: T7, IKZF3 (Homo sapiens, UniProt Q96SW2+Q9UKT9); test: as above; format: cell-based; conditions: substrate protein remaining %, treated at 50 nM and 500 nM, 24 hours
T7 construct: endogenous in cells; host or cells: hPBMC
T7 sequence (Q9UKT9 whole entry): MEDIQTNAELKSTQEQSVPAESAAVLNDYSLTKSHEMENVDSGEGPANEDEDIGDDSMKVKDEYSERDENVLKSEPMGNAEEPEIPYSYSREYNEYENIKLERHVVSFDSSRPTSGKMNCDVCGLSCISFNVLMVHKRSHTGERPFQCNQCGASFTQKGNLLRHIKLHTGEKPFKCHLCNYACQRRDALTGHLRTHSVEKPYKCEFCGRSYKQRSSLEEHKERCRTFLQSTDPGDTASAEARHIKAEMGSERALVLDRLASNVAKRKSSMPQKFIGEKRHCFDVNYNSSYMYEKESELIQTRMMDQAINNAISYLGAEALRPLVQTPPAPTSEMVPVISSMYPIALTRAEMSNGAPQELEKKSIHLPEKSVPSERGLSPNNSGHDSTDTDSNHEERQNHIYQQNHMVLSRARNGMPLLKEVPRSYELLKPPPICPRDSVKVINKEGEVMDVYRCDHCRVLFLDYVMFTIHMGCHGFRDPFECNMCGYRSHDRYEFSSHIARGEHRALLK
T7 sequence (Q96SW2 whole entry): as the sequence (Q96SW2 whole entry) above
T7 sequence (Q16531 whole entry partner): as the sequence (Q16531 whole entry partner) above
Protocol: as §1, §2, §3, §4, §5, §6, §7

MM.1S = test: Tumor cell proliferation inhibition (CellTiter-Meiluncell Luminescent Cell Viability Assay); format: cell-based; conditions: MM.1S, 96 hours; for inhibition at 0.01 µM / inhibition at 0.5 µM: Homo sapiens, MM1.S; for inhibition at 0.01 µM: read-out: Inhibition Rate at 10 nM (%); for inhibition at 0.5 µM: 500 nM, read-out: Inhibition Rate at 500 nM (%)
In short: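 Following overnight seeding, tumor cells received serial compound dilutions to final levels that included 10 nM and 500 nM. Viability was assessed by luminescence at the end of the specified exposure time. Cultures were kept at 37°C with 5% CO2.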

Tau = test: Western blot, target protein degradation in H4 Cell; format: cell-based; conditions: substrate protein remaining %, treated at 500 nM and 50 nM, 24 hours
Protocol: as §1, §2, §3, §4, §5, §6
as §7, with “Target protein degradation rate(%) = 1−target protein remaining(%). [formula]” left out

AKT = test: Western blot, target protein degradation in hPBMC Cell; format: cell-based, Human; conditions: substrate protein remaining %, treated at 50 nM and 500 nM, 24 hours
Protocol: as §1, §2, §3, §4, §5, §6
as §7, with “Target protein degradation rate(%) = 1−target protein remaining(%). [formula]” left out

[2] = 10 nM, Table I-16, compounds of Formula (II)
[3] = Table I-16, compounds of Formula (II)

Structure (SMILES) | inhibition at 0.5 µM [1] [%] | inhibition at 2 µM [1] [%] | IC50 [1] [nM] | Degradation of substrate protein WEE1 (WEE1) | Degradation of substrate protein CK1α (CK1α) | Degradation of substrate protein GSPT1 (GSPT1) | Degradation of substrate protein IKZF1 (IKZF1) | Degradation of substrate protein IKZF2 (IKZF2) | Degradation of substrate protein IKZF3 (IKZF3) | Degradation of substrate protein AKT (AKT) | further results
CCc1cc2c(cc1N1CCC(N3CCN(Cc4ccc5c(c4)CN(C4CCC(=O)NC4=O)C5=S)CC3)CC1)C(C)(C)c1[nH]c3cc(C#N)ccc3c1C2=O (stereo not drawn) [GT-05097, 8-(4-(4-((2-(2,6-dioxopiperidin-3-yl)-1-thioxoisoindolin-5-yl)methyl)piperazin-1-yl)piperidin-1-yl)-9-ethyl-6,6-dimethyl-11-oxo-6,11-dihydro-5H-benzo[b]carbazole-3-carbonitrile] | 40 to 53 | 80 to 100 | – | – | – | – | – | – | – | – | IC50 (SR): 20 to 30 nM; Degradation of substrate protein ALK (ALK): A (0% ≤ substrate protein remaining % ≤ 80%)
O=C1CCC(N2Cc3ccccc3C2=S)C(=O)N1 (stereo not drawn) [GT-05563, 3-(1-thioxoisoindolin-2-yl)piperidine-2,6-dione] | – | – | < 500 | A (0% ≤ substrate protein remaining % ≤ 80%) | B (80%< substrate protein remaining %≤ 100%) | A (0% ≤ substrate protein remaining % ≤ 80%) | A (0% ≤ substrate protein remaining % ≤ 80%) | A (0% ≤ substrate protein remaining % ≤ 80%) | A (0% ≤ substrate protein remaining % ≤ 80%) | – | –
O=C1CCC(N2Cc3ccc(CO)cc3C2=S)C(=O)N1 (stereo not drawn) [GT-05566, 3-(6-(hydroxymethyl)-1-thioxoisoindolin-2-yl)piperidine-2,6-dione] | – | – | < 500 | A (0% ≤ substrate protein remaining % ≤ 80%) | B (80%< substrate protein remaining %≤ 100%) | A (0% ≤ substrate protein remaining % ≤ 80%) | A (0% ≤ substrate protein remaining % ≤ 80%) | A (0% ≤ substrate protein remaining % ≤ 80%) | A (0% ≤ substrate protein remaining % ≤ 80%) | – | inhibition at 0.01 µM (MM.1S; [2]): 20 to 30%
O=C1CCC(N2Cc3cc(CO)ccc3C2=S)C(=O)N1 (stereo not drawn) [GT-06977, 3-(5-(hydroxymethyl)-1-thioxoisoindolin-2-yl)piperidine-2,6-dione] | – | – | < 500 | B (80%< substrate protein remaining %≤ 100%) | B (80%< substrate protein remaining %≤ 100%) | B (80%< substrate protein remaining %≤ 100%) | B (80%< substrate protein remaining %≤ 100%) | B (80%< substrate protein remaining %≤ 100%) | A (0% ≤ substrate protein remaining % ≤ 80%) | – | inhibition at 0.5 µM (MM.1S; [3]): 35 to 40%; Inhibition Rate at 10 nM (%) (MM.1S; [2]): ln6
O=C1CCC(N2Cc3c(CO)cccc3C2=S)C(=O)N1 (stereo not drawn) [GT-06981, 3-(4-(hydroxymethyl)-1-thioxoisoindolin-2-yl)piperidine-2,6-dione] | – | – | < 500 | B (80%< substrate protein remaining %≤ 100%) | B (80%< substrate protein remaining %≤ 100%) | B (80%< substrate protein remaining %≤ 100%) | B (80%< substrate protein remaining %≤ 100%) | B (80%< substrate protein remaining %≤ 100%) | A (0% ≤ substrate protein remaining % ≤ 80%) | – | inhibition at 0.01 µM (MM.1S; [2]): 20 to 30%; inhibition at 0.5 µM (MM.1S; [3]): 35 to 40%

Second part, led by results:

inhibition at 0.5 µM [1] [%] | inhibition at 2 µM [1] [%] | IC50 [1] [nM] | Structure (SMILES) | Degradation of substrate protein WEE1 (WEE1) | Degradation of substrate protein CK1α (CK1α) | Degradation of substrate protein GSPT1 (GSPT1) | Degradation of substrate protein IKZF1 (IKZF1) | Degradation of substrate protein IKZF2 (IKZF2) | Degradation of substrate protein IKZF3 (IKZF3) | Degradation of substrate protein AKT (AKT) | further results
53 to 60 | 80 to 100 | – | CC(=O)N1CCCN(c2nc(NCCc3cccs3)nc(N3CCN(Cc4ccc5c(c4)CN(C4CCC(=O)NC4=O)C5=S)CC3)n2)CC1 (stereo not drawn) [GT-08867, 3-(5-((4-(4-(4-acetyl-1,4-diazepan-1-yl)-6-((2-(thiophen-2-yl)ethyl)amino)-1,3,5-triazin-2-yl)piperazin-1-yl)methyl)-1-thioxoisoindolin-2-yl)piperidine-2,6-dione] | – | – | – | – | – | – | – | Degradation of substrate protein Tau (Tau): A (0% ≤ substrate protein remaining % ≤ 80%)
30 to 40 | 60 to 80 | – | Cn1ncc(Cl)c1-c1cc(C(=O)N[C@H](CNCc2ccc3c(c2)CN(C2CCC(=O)NC2=O)C3=S)Cc2ccc(F)c(F)c2)oc1Cl (stereo partly drawn) [GT-08895, 5-chloro-4-(4-chloro-1-methyl-1H-pyrazol-5-yl)-N-((2S)-1-(3,4-difluorophenyl)-3-(((2-(2,6-dioxopiperidin-3-yl)-1-thioxoisoindolin-5-yl)methyl)amino)propan-2-yl)furan-2-carboxamide] | – | – | – | – | – | – | A (0% ≤ substrate protein remaining % ≤ 80%) | inhibition at 0.01 µM (MM.1S; 10 nM, Table I-14, AKT inhibitors): 30 to 40%; inhibition at 0.5 µM (MM.1S; Table I-14, AKT inhibitors): 50 to 60%
53 to 60 | 80 to 100 | – | Cn1ncc(Cl)c1-c1cc(C(=O)N[C@@H](Cc2ccc(F)c(F)c2)CN2CCN(Cc3ccc4c(c3)CN(C3CCC(=O)NC3=O)C4=S)CC2)oc1Cl (stereo partly drawn) [GT-08896, 5-chloro-4-(4-chloro-1-methyl-1H-pyrazol-5-yl)-N-((2S)-1-(3,4-difluorophenyl)-3-(4-((2-(2,6-dioxopiperidin-3-yl)-1-thioxoisoindolin-5-yl)methyl)piperazin-1-yl)propan-2-yl)furan-2-carboxamide] | – | – | – | – | – | – | A (0% ≤ substrate protein remaining % ≤ 80%) | –
60 to 80 | 60 to 80 | – | Cn1ncc(Cl)c1-c1cc(C(=O)N[C@@H](Cc2cccc(F)c2)CN2CCN(Cc3ccc4c(c3)CN(C3CCC(=O)NC3=O)C4=S)CC2)sc1Cl (stereo partly drawn) [GT-08897, 5-chloro-4-(4-chloro-1-methyl-1H-pyrazol-5-yl)-N-((2S)-1-(4-((2-(2,6-dioxopiperidin-3-yl)-1-thioxoisoindolin-5-yl)methyl)piperazin-1-yl)-3-(3-fluorophenyl)propan-2-yl)thiophene-2-carboxamide] | – | – | – | – | – | – | A (0% ≤ substrate protein remaining % ≤ 80%) | –
